Reference: patent publication US6979686B1, “Substituted pyrazoles as p38 kinase inhibitors” (Pharmacia Corporation, priority 2001, dated 2005)
Like-named read-outs stand apart in the source and are kept apart here.

How the values were obtained:
[1] = target: T1, human p38 kinase alpha (Homo sapiens, UniProt Q16539); assay: p38 kinase in vitro assay, phosphorylation of biotinylated PHAS-I with 32P-ATP; assay type: biochemical; conditions: for IC50: read-out: P38 alpha kinase IC50
T1 construct: GST (N, cleaved yes); made in house; host or cells: E. coli DH10B
T1 sequence (Q16539 whole entry): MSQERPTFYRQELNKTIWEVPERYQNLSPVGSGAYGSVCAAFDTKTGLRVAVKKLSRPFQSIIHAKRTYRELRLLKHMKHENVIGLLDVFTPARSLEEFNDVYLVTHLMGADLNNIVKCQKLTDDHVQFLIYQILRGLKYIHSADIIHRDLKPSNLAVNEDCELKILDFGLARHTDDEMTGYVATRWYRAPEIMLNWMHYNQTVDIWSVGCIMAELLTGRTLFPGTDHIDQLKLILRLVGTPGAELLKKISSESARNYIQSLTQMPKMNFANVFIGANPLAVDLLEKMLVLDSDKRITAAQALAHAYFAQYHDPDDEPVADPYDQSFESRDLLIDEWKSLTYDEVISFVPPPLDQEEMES

[2] = system: TNF-α, U937 human histiocytic lymphoma cell line; assay: LPS stimulation of TNF production by U937 cells; assay type: cell-based; conditions: for inhibition at 1 µM: U-937, @ 1.0 uM, read-out: U937 Cell % inhib @ conc.; for IC50: read-out: U937 Cell IC50
Summary of the method: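 U937 cells differentiated 24 h with 20 ng/ml PMA, rested 24-48 h, used at 2 million cells/ml. Compounds in 0.1% DMSO final; LPS (E. coli, 100 ng/ml final) stimulation for 4 h at 37° C. Released TNF-α measured by ELISA; IC50 (μM).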

[3] = in vitro P38-alpha kinase inhibition
[4] = Homo sapiens, TNF production, U937 cells stimulated with LPS
[5] = Homo sapiens, TNF production, LPS-stimulated U937 cells
[6] = @ 1.0 uM, TNF production, U937 cells stimulated with LPS
[7] = Homo sapiens, U-937, TNF production, human U937 cells stimulated with LPS
[8] = Homo sapiens, TNF production in human U937 cells stimulated with LPS
[9] = Homo sapiens, U-937, TNF production in human U937 cells stimulated with LPS
[10] = @ 1.0 uM, TNF production in human U937 cells stimulated with LPS

Compound: CNC(=O)CCC(NC(=O)c1ccncc1)c1[nH]nc(-c2ccc(F)cc2)c1-c1ccncc1 (stereo not shown) [Example B-0875]
- IC50 [1, 3]: 2130 nM
- inhibition at 1 µM [2, 4]: 8%

Compound: CN(C(=O)NC(Cc1ccccc1)c1[nH]nc(-c2ccc(F)cc2)c1-c1ccncc1)c1ccccc1 (stereo not shown) [Example B-0776]
- IC50 [1, 3]: 900 nM
- IC50 ([2]; TNF production in human U937 cells stimulated with LPS): > 1000 nM

Compound: CN(C)c1cccc2c(S(=O)(=O)N3CCC(c4[nH]nc(-c5ccc(F)cc5)c4-c4ccncc4)CC3)cccc12 [Example B-1442]
- IC50 ([1]; in vitro P38-alpha kinase): 1540 nM
- inhibition at 1 µM [2, 5]: 18%

Compound: COc1ccc(CC(=O)NCCc2[nH]nc(-c3ccc(F)cc3)c2-c2ccncc2)cc1OC [Example B-0999]
- P38 alpha kinase % inhib @ conc. (uM) ([1]; @ 1.0 uM): 61.0% @
- U937 Cell % inhib @ conc. (uM) [2, 6]: 24.0% @

Compound: O=C(NCCc1[nH]nc(-c2ccc(F)cc2)c1-c1ccncc1)c1cc(Cl)cc(Cl)c1 [Example B-1126]
- IC50 [1, 3]: 1500 nM
- IC50 [2, 7]: > 1000 nM

Compound: O=S(=O)(NCc1[nH]nc(-c2ccc(F)cc2)c1-c1ccncc1)c1ccc(OC(F)F)cc1 [Example B-0143]
- P38 alpha kinase % inhib @ conc. ([1]; @ 1.0 uM): 42.0% @
- IC50 ([2]; TNF production, human U937 cells stimulated with LPS): 3630 nM

Compound: CC(C)=CC(=O)NC(C)c1[nH]nc(-c2ccc(F)cc2)c1-c1ccncc1 (stereo not shown) [Example B-0547]
- IC50 [1, 3]: 1240 nM
- inhibition at 1 µM [2, 8]: 21%

Compound: O=C(NCCc1[nH]nc(-c2ccc(F)cc2)c1-c1ccncc1)c1ccccc1 [Example B-1003]
- P38 alpha kinase % inhib @ conc. (uM) ([1]; @ 1.0 uM): 74.0% @
- U937 Cell % inhib @ conc. (uM) [2, 6]: 29.0% @

Compound: CC(NC(=O)c1ccc(F)c(F)c1F)c1[nH]nc(-c2ccc(F)cc2)c1-c1ccncc1 (stereo not shown) [Example B-0546]
- IC50 [1, 3]: 1040 nM
- inhibition at 1 µM [2, 8]: 18%

Compound: COc1ccc(S(=O)(=O)NC(Cc2ccccc2)c2[nH]nc(-c3ccc(F)cc3)c2-c2ccncc2)cc1OC (stereo not shown) [Example B-0722]
- IC50 [1, 3]: 70 nM
- IC50 [2, 9]: > 1000 nM

Compound: CCOC(=O)C(Cc1ccccc1)NC(=O)Cn1nc(-c2ccc(F)cc2)c(-c2ccncc2)c1C (stereo not shown) [Example B-2351]
- P38 alpha kinase % inhib @ conc. ([1]; @ 10.0 uM): 77.0% @
- U937 Cell % inhib @ conc. ([2]; @ 10.0 uM, TNF production, LPS-stimulated U937 cells): 1.0% @

Compound: CC(=O)Nc1ccc(S(=O)(=O)NCCc2[nH]nc(-c3ccc(F)cc3)c2-c2ccncc2)cc1 [Example B-1059]
- IC50 [1, 3]: 180 nM
- inhibition at 1 µM [2, 4]: 24%

Compound: COc1ccc(CC(=O)NCc2[nH]nc(-c3ccc(F)cc3)c2-c2ccncc2)cc1 [Example B-0036]
- inhibition at 1 µM ([1]; @ 1.0 uM, read-out: P38 alpha kinase % inhib @ conc.): 92%
- IC50 [2, 7]: 8240 nM

Compound: CC(NC(=O)c1ccc(C(F)(F)F)cc1)c1[nH]nc(-c2ccc(F)cc2)c1-c1ccncc1 (stereo not shown) [Example B-0704]
- IC50 [1, 3]: 2190 nM
- U937 Cell % inhib @ conc. (uM) [2, 10]: 29.0% @

Compound: O=S(=O)(c1ccccc1)N1CCC(c2[nH]nc(-c3ccc(F)cc3)c2-c2ccncc2)CC1 [Example B-1433]
- IC50 ([1]; in vitro P38-alpha kinase): 260 nM
- inhibition at 1 µM [2, 5]: 21%

Compound: CCS(=O)(=O)NC(CCC(=O)NC)c1[nH]nc(-c2ccc(F)cc2)c1-c1ccncc1 (stereo not shown) [Example B-0877]
- IC50 [1, 3]: 1170 nM
- inhibition at 1 µM [2, 4]: 13%

Compound: CN(C(=O)NC(Cc1ccccc1)c1[nH]nc(-c2ccc(F)cc2)c1-c1ccncc1)c1ccccc1 (stereo not shown) [Example B-0731]
- IC50 [1, 3]: 870 nM
- IC50 [2, 9]: > 1000 nM

Compound: O=C(NCCc1[nH]nc(-c2ccc(F)cc2)c1-c1ccncc1)c1cc(F)cc(F)c1 [Example B-1130]
- IC50 [1, 3]: 500 nM
- inhibition at 1 µM [2, 4]: 29%

Compound: O=C(NC(Cc1ccccc1)c1[nH]nc(-c2ccc(F)cc2)c1-c1ccncc1)c1ccc(F)c(F)c1F (stereo not shown) [Example B-0813]
- IC50 [1, 3]: 3020 nM
- IC50 [2, 7]: > 1000 nM

Compound: CC(NC(=O)c1cccs1)c1[nH]nc(-c2ccc(F)cc2)c1-c1ccncc1 (stereo not shown) [Example B-0705]
- IC50 [1, 3]: 440 nM
- U937 Cell % inhib @ conc. (uM) [2, 10]: 21.0% @

Compound: O=C(NCc1[nH]nc(-c2ccc(F)cc2)c1-c1ccncc1)[C@@H]1CCCN1 [B0194]
- IC50 ([1]; in vitro P38-alpha kinase): 1310 nM
- U937 Cell % inhib @ conc. [2, 6]: 22% @

Compound: O=C(NCCc1[nH]nc(-c2ccc(F)cc2)c1-c1ccncc1)NC1CC1c1ccccc1 (racemic) [Example B-0941]
- P38 alpha kinase % inhib @ conc. (uM) ([1]; @ 1.0 uM): 81.0% @
- U937 Cell % inhib @ conc. (uM) [2, 6]: 25.0% @

Compound: COc1cccc(CC(=O)N2CCC(c3[nH]nc(-c4ccc(F)cc4)c3-c3ccncc3)CC2)c1 [Example B-1370]
- IC50 ([1]; in vitro P38-alpha kinase): < 100 nM
- IC50 [2, 7]: 770 nM
